The text below walks through data of patent publication US12491243B2, “Formulation containing TLR agonist and methods of use” (ACCESS TO ADVANCED HEALTH INSTITUTE, priority 2016, dated 2025).

Broadly, the pKa is the pH at which an ionisable group is half protonated.

Data set [1] in a line: Adsorption to Alhydrogel® (aluminum oxyhydroxide): unbound material assayed in centrifuged supernatant. Format: physicochemical. As to conditions: for TLR Agonist Conc. In Supernatant (T = 16 wks): storage at 5° C.; for TLR Agonist Conc. In Supernatant (T = 16 wks) / TLR Agonist Conc. In Supernatant (T = 0): the ligand itself, in combinations first value = 3M-052. The protocol:
Adjuvant formulation characterization and stability. Aqueous nanosuspensions were characterized for particle size by dynamic light scattering (DLS) using the Malvern Instruments (Worcestershire, UK) Zetasizer Nano-S or —ZS. Aqueous nanosuspensions were diluted 1:10 or 1:100 fold in water in a polystyrene cuvette prior to analysis, which consisted of three measurements resulting in a scattering intensity-biased average diameter value reported as the Z-ave. Zeta potential was measured using the Zetasizer Nano-ZS using a disposable capillary cell, with nine consecutive measurements collected from each sample prepared at 1:10 dilution in water. In general, 3M-052 concentration was measured by UV absorbance at 322.5 nm after diluting formulations 1:20 into ethanol:HCl (98:2 v:v) and comparing to a standard curve. The dilution into organic solvent removes potential interference from light scattering of the nanosuspension particles. However, for the 3M-052 binding isotherm, where maximum sensitivity was desired, no dilution was performed for the samples or the standards. Alternatively, 3M-052 concentration was determined by reverse phase HPLC with charged aerosol detection. TLR9 CpG control concentration was measured by UV absorbance at 260 nm after 1:20 dilution into ethanol:HCl. GLA concentration was measured by reverse-phase HPLC with an C18 column (Atlantis T3 or Agilent XBridge) and charged aerosol detection (CAD) using a methanol:chloroform:water mobile gradient as described previously (6). To detect unbound TLR ligand, alum-containing formulations were centrifuged briefly as indicated and the supernatant assayed by UV absorbance or HPLC-CAD. Depending on experiment, centrifugation time was 2-5 min at 2,000-16,000×g. In some experiments (FIG. 2D and Table 4), to remove the influence of saline or buffer salts on the sedimentation of TLR agonists in aluminum salt preparations, aluminum salts were first centrifuged and the supernatants removed and replaced with water; this process was repeated for another wash prior to employing the aluminum salts in the binding studies.
Antigen adsorption to aluminum salts. Binding efficiency of 3M-052 and ID93 or HIV gp120 antigen to Alhydrogel® and AdjuPhos® was determined by UV-Vis Spectroscopy and SDS-PAGE with silver stain. 1-mL of formulation was prepared by mixing saline diluent, antigen, 3M-052-AF, and/or aluminum salt. To determine HIV gp120 antigen adsorption, 30 μl of sample supernatant was mixed with 10 μl of 4× reducing or non-reducing LDS Sample Buffer, following which 20-25 μl was loaded into a 10-lane SDS-PAGE gel with 15 μl of SeeBlue2 Prestained Standard. To determine ID93 adsorption, 45 μl of sample supernatant was mixed with 15 μl of 4× reducing LDS Sample Buffer, following which 25 μl was loaded into a 10-lane SDS-PAGE gel with 15 μl of SeeBlue2 Prestained Standard. The gels were run for 55 minutes at 190 V and then placed into a fixing solution of 50:40:10 EtOH:CH3COOH:H2O for overnight. […]
To determine the adsorption capacity of Alhydrogel® for 3M-052-AF, the nanosuspension at various concentrations was mixed with aluminum oxyhydroxide and allowed to sit for ˜30 min with intermittent vortexing, followed by centrifugation such that the aluminum particles pelleted. […] The adsorption stability of 3M-052-AF on Alhydrogel® over time was evaluated by assaying samples for unbound 3M-052 before and after storage at 5° C. for 16 wks. […]

The conditions of data set [2]: imidazoquinolines such as 3M-052; reference (9); cited from earlier work.
The target of the next data set is T1, human TLR7 (Homo sapiens, UniProt Q9NYK1).
T1 sequence (Q9NYK1 27-1049): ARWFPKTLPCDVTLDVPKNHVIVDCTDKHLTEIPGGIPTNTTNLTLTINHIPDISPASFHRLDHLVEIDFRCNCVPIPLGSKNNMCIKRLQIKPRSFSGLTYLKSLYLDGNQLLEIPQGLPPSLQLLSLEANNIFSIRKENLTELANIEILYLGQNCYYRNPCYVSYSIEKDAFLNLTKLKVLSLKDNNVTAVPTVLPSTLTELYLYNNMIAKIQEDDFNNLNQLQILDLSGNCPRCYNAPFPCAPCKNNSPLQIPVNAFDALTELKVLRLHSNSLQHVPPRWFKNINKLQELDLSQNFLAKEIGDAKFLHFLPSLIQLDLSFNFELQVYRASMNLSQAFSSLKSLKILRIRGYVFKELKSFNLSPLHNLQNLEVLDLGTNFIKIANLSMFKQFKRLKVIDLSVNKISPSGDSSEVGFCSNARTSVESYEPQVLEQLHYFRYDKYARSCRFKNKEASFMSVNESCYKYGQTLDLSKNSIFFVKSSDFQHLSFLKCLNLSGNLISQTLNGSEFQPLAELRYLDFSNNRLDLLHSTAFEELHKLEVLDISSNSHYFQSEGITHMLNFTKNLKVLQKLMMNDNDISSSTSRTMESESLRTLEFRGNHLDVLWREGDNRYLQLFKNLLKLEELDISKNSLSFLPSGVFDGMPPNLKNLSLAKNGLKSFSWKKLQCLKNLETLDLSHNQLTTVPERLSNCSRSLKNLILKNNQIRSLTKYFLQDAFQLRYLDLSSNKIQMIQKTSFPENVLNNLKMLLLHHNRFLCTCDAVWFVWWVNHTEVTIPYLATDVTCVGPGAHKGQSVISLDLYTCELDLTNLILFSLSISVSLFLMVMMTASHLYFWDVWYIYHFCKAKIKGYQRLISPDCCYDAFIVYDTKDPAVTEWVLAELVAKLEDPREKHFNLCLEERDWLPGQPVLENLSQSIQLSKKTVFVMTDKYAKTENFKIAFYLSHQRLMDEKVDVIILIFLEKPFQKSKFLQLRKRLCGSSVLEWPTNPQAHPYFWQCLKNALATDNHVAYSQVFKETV
As to conditions: in vitro; reference (5); cited from earlier work.

A further data set deals with T2, human TLR8 (Homo sapiens, UniProt Q9NR97).
T2 sequence (Q9NR97 27-1041): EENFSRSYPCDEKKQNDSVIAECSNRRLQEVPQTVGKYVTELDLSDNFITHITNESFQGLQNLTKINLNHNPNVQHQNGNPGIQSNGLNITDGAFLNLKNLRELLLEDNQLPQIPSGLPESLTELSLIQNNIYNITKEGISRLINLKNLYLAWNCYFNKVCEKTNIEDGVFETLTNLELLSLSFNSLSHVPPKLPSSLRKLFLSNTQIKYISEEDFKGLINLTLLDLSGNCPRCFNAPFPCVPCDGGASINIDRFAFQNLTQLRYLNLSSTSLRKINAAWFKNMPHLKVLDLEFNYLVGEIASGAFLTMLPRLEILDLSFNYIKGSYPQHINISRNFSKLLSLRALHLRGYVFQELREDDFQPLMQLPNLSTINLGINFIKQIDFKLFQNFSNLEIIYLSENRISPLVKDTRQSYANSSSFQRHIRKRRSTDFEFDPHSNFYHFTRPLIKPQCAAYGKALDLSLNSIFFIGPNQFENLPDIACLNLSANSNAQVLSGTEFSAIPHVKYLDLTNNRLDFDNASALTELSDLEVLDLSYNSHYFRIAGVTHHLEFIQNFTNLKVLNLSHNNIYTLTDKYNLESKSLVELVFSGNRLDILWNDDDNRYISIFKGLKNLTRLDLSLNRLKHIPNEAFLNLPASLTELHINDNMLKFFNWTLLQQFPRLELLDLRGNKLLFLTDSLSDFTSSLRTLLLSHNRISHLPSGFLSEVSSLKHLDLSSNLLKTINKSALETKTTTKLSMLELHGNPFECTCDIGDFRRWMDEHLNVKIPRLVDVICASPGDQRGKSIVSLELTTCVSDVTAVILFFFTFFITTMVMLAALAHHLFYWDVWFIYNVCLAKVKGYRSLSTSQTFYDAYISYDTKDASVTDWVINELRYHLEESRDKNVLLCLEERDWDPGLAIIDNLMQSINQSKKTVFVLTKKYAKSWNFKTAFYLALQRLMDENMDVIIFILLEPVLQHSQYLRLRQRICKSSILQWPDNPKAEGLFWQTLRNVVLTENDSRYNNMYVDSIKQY
To be noted: in vitro; reference (5); cited from earlier work.

Consider `CCCCCCCCCCCCCCCCCC(=O)NCCCCOn1c(CCCC)nc2c(N)nc3ccccc3c21` [3M-052, N-(4-{[4-amino-2-butyl-1H-imidazo[4,5-c]quinolin-1-yl]oxy}butyl)octadecanamide], for which the “effect of other TLR ligands on adsorption of 3M-052 to aluminum oxyhydroxide” value in data set [1] (co-adsorbed GLA or TLR9 CpG control (Table 2)) is on record as “did not appear to interfere”. Further, the “TLR Agonist Conc. In Supernatant (T = 16 wks)” value is 74 ± 1 µg/mL in data set [1] (no aluminum salt (control)) and 10 ± 1 µg/mL in data set [1] (with Alhydrogel®). Further, the “TLR Agonist Conc. In Supernatant (T = 0)” value in data set [1] (no aluminum salt (control)) amounted to 94 ± 1 µg/mL; in data set [1] (with Alhydrogel®), 11 ± 1 µg/mL. In addition, in data set [2], the pKa is on record as roughly 7. Besides, at human TLR7, the “activation of human TLR7” value is reported as “activates”. The “activation of human TLR8” value on human TLR8 was “activates”.
